Entries after “also recorded” stand apart in the source; their conditions may differ. Where no end group is shown, it is not given here.
How the values were obtained:
[1] = tested on: reporter cells BIB625 (RapA-Spo0F FRET); assay: Bioassay of supernatants: PhrA depletion from medium measured with fresh reporter cells; assay type: cell-based, Bacillus subtilis; conditions: 10 nM PhrA, within a few minutes
Protocol: Induction of FRET reporters: Reporter cells were inoculated from a single colony into 5 ml of LB medium with antibiotics and incubated on a rotary shaker (Infors HT Multitron) at 180 rpm and 37 °C for 7 h. Cells were resuspended at OD600 nm = 0.003 in 5 ml of S7_50 medium and incubated for 16 h overnight. Expression of the fusion proteins was induced by resuspending the reporter cells at an OD600 nm =0.04 in 10 ml of fresh S7_50 supplemented with 100 µM IPTG in a 100-ml flask. When applicable, protein expression from a xylose-inducible promoter was induced by adding xylose at a final concentration of 1% (w/v). Cells were grown to a final OD600 nm ~1.6.
Bioassay and supernatant analysis: The supernatants were collected after centrifugation of stimulated cells. […] The supernatants were then filtered through a 0.2-µm PES membrane, and analyzed as described above with the following modification. To increase the sensitivity of the bioassay, the volume of analyzed supernatant and the incubation time were increased to VS = 1950 µl and tB = 20 min + 1 min, respectively. […]
The FRET efficiency was determined using the formula:5 FRET=CFPpost−CFPpre/CFPpost⋅100%, where CFPpre and CFPpost denote the emission levels before and after acceptor photobleaching, respectively. […] CFPpre is then evaluated at the end of the bleaching period by extrapolating the linear fit accordingly (see Fig. 2b). […]

[2] = PhrA stability in cell-free supernatant (Supplementary Fig. 5B); assay type: in vitro ADME
Protocol: Bioassay and supernatant analysis: The supernatants were collected after centrifugation of stimulated cells. Aliquots (VS = 450 µl) of the cell-free supernatants were mixed with 50 µl of a 10× suspension of fresh unstimulated reporter cells, for tB = 5 min + 1 min (time for incubation plus centrifugation) at room temperature and then processed as described above. To detect extracellular PhrA in S7_50 cultures, wild-type cells (BIB224) were grown for 5 h to an OD600 nn ~ 1.6 and pelleted by centrifugation. The supernatants were then filtered through a 0.2-µm PES membrane, and analyzed as described above with the following modification. To increase the sensitivity of the bioassay, the volume of analyzed supernatant and the incubation time were increased to VS = 1950 µl and tB = 20 min + 1 min, respectively.

[3] = target: T1, CFP-RapA (Bacillus subtilis 168, UniProt Q00828 1-378); assay: FRET or BRET; loss of CFP-RapA/Spo0F-YFP FRET in B. subtilis reporter cells against PhrA; EC50 is the intracellular PhrA concentration of the half-maximal response, inferred by fitting all data of Figs. 4 and 5 to the pump-probe model (Hill function); conditions: one partner purified
T1 construct: RapA, Rap-family RRNPP-type receptor (response regulator aspartate phosphatase A) of Bacillus subtilis; rapA amplified from B. subtilis 168 genomic DNA; ecfp(Bs) is joined to the N-terminus of RapA by a GSGGV linker; also called RapA receptor; RapA-CFP; source: B. subtilis reporter strain BIB625 (ΔrapA-phrA Δspo0F), IPTG-induced from the amyE locus, in living cells; not shown: eCFP(Bs), …
T1 sequence (looked up): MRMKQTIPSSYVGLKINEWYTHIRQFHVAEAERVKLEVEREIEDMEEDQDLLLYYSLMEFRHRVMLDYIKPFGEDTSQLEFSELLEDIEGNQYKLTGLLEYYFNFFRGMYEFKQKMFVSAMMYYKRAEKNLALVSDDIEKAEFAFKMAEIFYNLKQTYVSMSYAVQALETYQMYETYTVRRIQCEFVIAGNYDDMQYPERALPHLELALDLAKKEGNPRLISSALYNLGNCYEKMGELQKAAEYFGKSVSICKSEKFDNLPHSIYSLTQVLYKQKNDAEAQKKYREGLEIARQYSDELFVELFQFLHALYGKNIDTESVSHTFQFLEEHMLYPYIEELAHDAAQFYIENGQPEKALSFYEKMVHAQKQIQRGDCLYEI

Question: With ARNQT [PhrA] as the molecule, how does the “extracellular PhrA level after stimulation” value [1] read?
Answer: Its value is “below the detection limit of the bioassay”.

Question: And the “time for which bioassay FRET remained unchanged (stability)” value ([2]; 10 nM PhrA in cell-free supernatant, room temperature, bioassay read-out, ne = 3)?
Answer: Its value is “at least 8 h”.

Question: And the “bioassay FRET during incubation in cell-free supernatant” value ([2]; 10 nM PhrA in cell-free supernatant, room temperature, up to at least 8 h, ne = 3)?
Answer: The value was ~ 7%.

Question: And the “extracellular stability” value ([2]; 10 nM PhrA, cell-free supernatant)?
Answer: Its value is “stable in cell-free supernatants; also recorded: stable for hours”.

B1: PhrA (peptide)
peptide: ARNQT
notes: PhrA, the mature linear pentapeptide derived from the phrA gene product of Bacillus subtilis; also called PhrA pentapeptide; ARNQT; source: synthetic peptide (Peptides and Elephant, purity >95%)
Question: With B1 as the molecule, how does the EC50 [3] read?
Answer: Its EC50 is 38 µM.

— paper PMC7055314, “Ratiometric population sensing by a pump-probe signaling system in Bacillus subtilis” (Nature Communications, 2020)
